Data: patent US11214594B2, “Antimicrobial peptide having synergistic antibacterial effect with antibiotics on multidrug resistant bacteria, and use thereof” (priority 2016, dated 2022)
Converted amounts (≈) assume the structure as drawn. Read-outs that look alike come from different tables or passages of the source. Where a SMILES comes first, the peptide text is derived from it. [ ]: non-standard residue; d: D form.

What was measured:
[1] = system: MDREC 1229; experiment: MIC of antibiotic during combined treatment with antimicrobial peptide; assay type: cell-based, Escherichia coli
Outline: (§1)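 Broth microdilution in MH medium; strains were diluted to 2×10^6 CFU per ml before plating. Peptide was serially diluted stepwise at 2:1 starting from its MIC, and MH-diluted antibiotic was then added to determine MIC. The reversed arrangement was also tested.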

[2] = system: B. subtilis; experiment: microbe, parasite or virus in culture; assay type: cell-based, Bacillus subtilis
Outline: (§2)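 MIC read-out = lowest peptide level with no bacterial proliferation. Strains diluted in MH medium to 2×10^6 CFU; peptide twofold serial dilutions in MH added 1:1 in microtiter wells.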

[3] = system: MDRAB 12035; experiment: MIC of antimicrobial peptide during combined treatment with antibiotic; assay type: cell-based, Acinetobacter baumannii
Outline: as §1

[4] = system: A. baumannii; experiment: as above; assay type: cell-based, Acinetobacter baumannii
Outline: as §1

[5] = system: E. coli; experiment: MIC of antibiotic during combined treatment with antimicrobial peptide; assay type: cell-based, Escherichia coli; settings: for Antibiotic MIC, Erythromycin / Antibiotic MIC, Linezolid / Antibiotic MIC, Vancomycin: E. coli
Outline: (§3)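 First, antibiotic solution is diluted with MH medium; next, the dilution is dispensed into wells containing peptide; finally, the orientation is swapped and MIC of each mixture determined.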

[6] = system: MDRAB 12036; assay type: cell-based, Acinetobacter baumannii
Outline: as §2

[7] = system: A. baumannii; experiment: MIC of antibiotic during combined treatment with antimicrobial peptide; assay type: cell-based, Acinetobacter baumannii; settings: for Antibiotic MIC, Erythromycin / Antibiotic MIC, Linezolid / Antibiotic MIC, Vancomycin: A. baumannii
Outline: as §3

[8] = system: E. coli; assay type: cell-based, Escherichia coli; settings: E. coli
Outline: as §1

[9] = system: MDREC 1229; assay type: cell-based, Escherichia coli
Outline: as §1

[10] = system: MDRST 8007; experiment: Minimal inhibitory concentration (MIC), single agent; assay type: cell-based, Salmonella typhimurium; settings: agent alone
Outline: as §2

[11] = system: E. coli; experiment: microbe, parasite or virus in culture; assay type: cell-based, Escherichia coli; settings: 16 h
Outline: as §2

[12] = system: MDREC 1229; experiment: microbe, parasite or virus in culture; assay type: cell-based, Escherichia coli
Outline: as §2

[13] = system: S. aureus; experiment: microbe, parasite or virus in culture; assay type: cell-based, Staphylococcus aureus
Outline: as §2

[14] = peptide treatment concentration 1 μg/ml
[15] = peptide treatment concentration 2 μg/ml
[16] = peptide treatment concentration 4 μg/ml
[17] = peptide treatment concentration 6 μg/ml
[18] = peptide treatment concentration 8 μg/ml
[19] = peptide treatment concentration 16 μg/ml
[20] = peptide treatment concentration 32 μg/ml
[21] = peptide treatment concentration 64 μg/ml
[22] = erythromycin 4 μg/ml (Conc./MIC 1/8)
[23] = erythromycin 8 μg/ml (Conc./MIC 1/4)
[24] = erythromycin 16 μg/ml (Conc./MIC 1/2)
[25] = erythromycin 32 μg/ml (Conc./MIC 1)
[26] = linezolid 64 μg/ml (Conc./MIC 1/8)
[27] = linezolid 512 μg/ml (Conc./MIC 1)
[28] = vancomycin 512 μg/ml (Conc./MIC 1/2)
[29] = vancomycin 1024 μg/ml (Conc./MIC 1)
[30] = combined with peptide at 1 μg/ml
[31] = combined with peptide at 2 μg/ml
[32] = combined with peptide at 4 μg/ml
[33] = combined with peptide at 6 μg/ml
[34] = combined with peptide at 8 μg/ml
[35] = combined with peptide at 16 μg/ml
[36] = combined with peptide at 32 μg/ml
[37] = combined with peptide at 64 μg/ml

## CC[C@H](C)[C@H](NC(=O)[C@H](CCCCN)NC(=O)[C@H](Cc1c[nH]c2ccccc12)NC(=O)[C@@H](N)CCCNC(=N)N)C(=O)N[C@@H](Cc1ccccc1)C(=O)N[C@@H](CCCCN)C(=O)N[C@@H](CCCCN)C(=O)N[C@H](C(=O)N[C@H](CCCCN)C(=O)N[C@@H](CCCCN)C(=O)N[C@@H](CC(C)C)C(=O)N[C@@H](CC(C)C)C(=O)N[C@@H](Cc1c[nH]cn1)C(=O)N[C@@H](CCC(=O)O)C(=O)N[C@@H](Cc1ccccc1)C(=O)N[C@@H](CCCCN)C(=O)N[C@@H](CCCCN)C(=O)N[C@@H](Cc1ccccc1)C(N)=O)[C@@H](C)CC [PapMA-19, RWK IFK KIk KLL HEF KKF-NH2] (H-RWKIFKKI[dK]KLLHEFKKF-NH2; N-terminus assumed)
[1]; [14]
  Antibiotic MIC, Erythromycin: 128 µg/mL
  Antibiotic MIC, Linezolid: >128 µg/mL
  Antibiotic MIC, Vancomycin: >128 µg/mL
[1]; [15]
  Antibiotic MIC, Erythromycin: 32 µg/mL
  Antibiotic MIC, Linezolid: 128 µg/mL
  Antibiotic MIC, Vancomycin: 128 µg/mL
[1]; [16]
  Antibiotic MIC, Erythromycin: 8 µg/mL
  Antibiotic MIC, Linezolid: 32 µg/mL
  Antibiotic MIC, Vancomycin: 64 µg/mL
[1]; [17]
  Antibiotic MIC, Erythromycin: 2 µg/mL
  Antibiotic MIC, Linezolid: 16 µg/mL
  Antibiotic MIC, Vancomycin: 8 µg/mL
[1]; [18]
  Antibiotic MIC, Erythromycin: 1 µg/mL
  Antibiotic MIC, Linezolid: 16 µg/mL
  Antibiotic MIC, Vancomycin: 8 µg/mL
[1]; [19]
  Antibiotic MIC, Erythromycin: 0.5 µg/mL
  Antibiotic MIC, Linezolid: 4 µg/mL
  Antibiotic MIC, Vancomycin: 4 µg/mL
[1]; [20]
  Antibiotic MIC, Erythromycin: 0 µg/mL
  Antibiotic MIC, Linezolid: 0 µg/mL
  Antibiotic MIC, Vancomycin: 0 µg/mL
[1]; [21]
  Antibiotic MIC, Erythromycin: 0 µg/mL
  Antibiotic MIC, Linezolid: 0 µg/mL
  Antibiotic MIC, Vancomycin: 0 µg/mL
[2]
  Minimal inhibitory concentration MIC: >128 µg/mL
[3]; [22]
  Peptide MIC during treatment with erythromycin: 4 µg/mL
[3]; [23]
  Peptide MIC during treatment with erythromycin: 4 µg/mL
[3]; [24]
  Peptide MIC during treatment with erythromycin: 2 µg/mL
[3]; [25]
  Peptide MIC during treatment with erythromycin: 0 µg/mL
[3]; [26]
  Peptide MIC during treatment with linezolid: 4 µg/mL
[3]; [27]
  Peptide MIC during treatment with linezolid: 0 µg/mL
[3]; linezolid […] (Conc./MIC 1/2)
  Peptide MIC during treatment with linezolid: 1 µg/mL
[3]; linezolid […] (Conc./MIC 1/4)
  Peptide MIC during treatment with linezolid: 2 µg/mL
[3]; [28]
  Peptide MIC during treatment with vancomycin: 2 µg/mL
[3]; [29]
  Peptide MIC during treatment with vancomycin: 1 µg/mL
[3]; vancomycin […] (Conc./MIC 1/4)
  Peptide MIC during treatment with vancomycin: 2 µg/mL
[3]; vancomycin […] (Conc./MIC 1/8)
  Peptide MIC during treatment with vancomycin: 2 µg/mL
[4]; [22]
  Peptide MIC during treatment with antibiotic: 4 µg/mL
[4]; [23]
  Peptide MIC during treatment with antibiotic: 4 µg/mL
[4]; [24]
  Peptide MIC during treatment with antibiotic: 2 µg/mL
[4]; [25]
  Peptide MIC during treatment with antibiotic: 0 µg/mL
[4]; linezolid 32 μg/ml (Conc./MIC 1/8)
  Peptide MIC during treatment with antibiotic: 4 µg/mL
[4]; linezolid 64 μg/ml (Conc./MIC 1/4)
  Peptide MIC during treatment with antibiotic: 2 µg/mL
[4]; linezolid […] (Conc./MIC 1)
  Peptide MIC during treatment with antibiotic: 0 µg/mL
[4]; linezolid […] (Conc./MIC 1/2)
  Peptide MIC during treatment with antibiotic: 1 µg/mL
[4]; [28]
  Peptide MIC during treatment with antibiotic: 0.25 µg/mL
[4]; [29]
  Peptide MIC during treatment with antibiotic: 0 µg/mL
[4]; vancomycin […] (Conc./MIC 1/4)
  Peptide MIC during treatment with antibiotic: 0.5 µg/mL
[4]; vancomycin […] (Conc./MIC 1/8)
  Peptide MIC during treatment with antibiotic: 2 µg/mL
[5]; E. coli and MDREC1229
  Synergistic effect of antibacterial activity with existing antibiotics compared with PapMA-1: higher level than the PapMA-1 peptide
[5]; erythromycin combined with peptide at 1 μg/ml
  Antibiotic MIC, Erythromycin: 64 µg/mL
[5]; erythromycin combined with peptide at 2 μg/ml
  Antibiotic MIC, Erythromycin: 32 µg/mL
[5]; erythromycin combined with peptide at 4 μg/ml
  Antibiotic MIC, Erythromycin: 8 µg/mL
[5]; erythromycin combined with peptide at 6 μg/ml
  Antibiotic MIC, Erythromycin: 2 µg/mL
[5]; erythromycin combined with peptide at 8 μg/ml
  Antibiotic MIC, Erythromycin: 1 µg/mL
[5]; erythromycin combined with peptide at 16 μg/ml
  Antibiotic MIC, Erythromycin: 0.25 µg/mL
[5]; erythromycin combined with peptide at 32 μg/ml
  Antibiotic MIC, Erythromycin: 0 µg/mL
[5]; erythromycin combined with peptide at 64 μg/ml
  Antibiotic MIC, Erythromycin: 0 µg/mL
[5]; linezolid combined with peptide at 1 μg/ml
  Antibiotic MIC, Linezolid: >128 µg/mL
[5]; linezolid combined with peptide at 2 μg/ml
  Antibiotic MIC, Linezolid: 64 µg/mL
[5]; linezolid combined with peptide at 4 μg/ml
  Antibiotic MIC, Linezolid: 32 µg/mL
[5]; linezolid combined with peptide at 6 μg/ml
  Antibiotic MIC, Linezolid: 8 µg/mL
[5]; linezolid combined with peptide at 8 μg/ml
  Antibiotic MIC, Linezolid: 8 µg/mL
[5]; linezolid combined with peptide at 16 μg/ml
  Antibiotic MIC, Linezolid: 4 µg/mL
[5]; linezolid combined with peptide at 32 μg/ml
  Antibiotic MIC, Linezolid: 0 µg/mL
[5]; linezolid combined with peptide at 64 μg/ml
  Antibiotic MIC, Linezolid: 0 µg/mL
[5]; vancomycin combined with peptide at 1 μg/ml
  Antibiotic MIC, Vancomycin: >128 µg/mL
[5]; vancomycin combined with peptide at 2 μg/ml
  Antibiotic MIC, Vancomycin: 128 µg/mL
[5]; vancomycin combined with peptide at 4 μg/ml
  Antibiotic MIC, Vancomycin: 64 µg/mL
[5]; vancomycin combined with peptide at 6 μg/ml
  Antibiotic MIC, Vancomycin: 8 µg/mL
[5]; vancomycin combined with peptide at 8 μg/ml
  Antibiotic MIC, Vancomycin: 8 µg/mL
[5]; vancomycin combined with peptide at 16 μg/ml
  Antibiotic MIC, Vancomycin: 4 µg/mL
[5]; vancomycin combined with peptide at 32 μg/ml
  Antibiotic MIC, Vancomycin: 0 µg/mL
[5]; vancomycin combined with peptide at 64 μg/ml
  Antibiotic MIC, Vancomycin: 0 µg/mL
[6]
  Minimal inhibitory concentration MIC: 32 µg/mL (≈ 13.2 µM)
[7]; A. baumannii and MDRAB 12035
  Synergistic effect of antibacterial activity with existing antibiotics compared with PapMA-1: higher level than the PapMA-1 peptide
[7]; [30]
  Antibiotic MIC, Erythromycin: 32 µg/mL
  Antibiotic MIC, Linezolid: >128 µg/mL
  Antibiotic MIC, Vancomycin: >128 µg/mL
[7]; [31]
  Antibiotic MIC, Erythromycin: 16 µg/mL
  Antibiotic MIC, Linezolid: 64 µg/mL
  Antibiotic MIC, Vancomycin: 128 µg/mL
[7]; [32]
  Antibiotic MIC, Erythromycin: 4 µg/mL
  Antibiotic MIC, Linezolid: 16 µg/mL
  Antibiotic MIC, Vancomycin: 32 µg/mL
[7]; [33]
  Antibiotic MIC, Erythromycin: 2 µg/mL
  Antibiotic MIC, Linezolid: 8 µg/mL
  Antibiotic MIC, Vancomycin: 8 µg/mL
[7]; [34]
  Antibiotic MIC, Erythromycin: 0.25 µg/mL
  Antibiotic MIC, Linezolid: 4 µg/mL
  Antibiotic MIC, Vancomycin: 4 µg/mL
[7]; [35]
  Antibiotic MIC, Erythromycin: 0 µg/mL
  Antibiotic MIC, Linezolid: 0 µg/mL
  Antibiotic MIC, Vancomycin: 0 µg/mL
[7]; [36]
  Antibiotic MIC, Erythromycin: 0 µg/mL
  Antibiotic MIC, Linezolid: 0 µg/mL
  Antibiotic MIC, Vancomycin: 0 µg/mL
[7]; [37]
  Antibiotic MIC, Erythromycin: 0 µg/mL
  Antibiotic MIC, Linezolid: 0 µg/mL
  Antibiotic MIC, Vancomycin: 0 µg/mL
[8]; with Erythromycin […] (Conc./MIC 1)
  Peptide MIC: 0 µg/mL
[8]; with Linezolid […] (Conc./MIC 1)
  Peptide MIC: 0 µg/mL
[8]; with Vancomycin 1024 μg/ml (Conc./MIC 1)
  Peptide MIC: 0 µg/mL
[9]; erythromycin 32 μg/ml (Conc./MIC 1/8)
  Peptide MIC during treatment with antibiotic: 2 µg/mL
[9]; erythromycin 64 μg/ml (Conc./MIC 1/4)
  Peptide MIC during treatment with antibiotic: 2 µg/mL
[9]; erythromycin […] (Conc./MIC 1)
  Peptide MIC during treatment with antibiotic: 0 µg/mL
[9]; erythromycin […] (Conc./MIC 1/2)
  Peptide MIC during treatment with antibiotic: 1 µg/mL
[9]; [26]
  Peptide MIC during treatment with antibiotic: 4 µg/mL
[9]; [27]
  Peptide MIC during treatment with antibiotic: 0 µg/mL
[9]; linezolid […] (Conc./MIC 1/2)
  Peptide MIC during treatment with antibiotic: 1 µg/mL
[9]; linezolid […] (Conc./MIC 1/4)
  Peptide MIC during treatment with antibiotic: 2 µg/mL
[9]; [28]
  Peptide MIC during treatment with antibiotic: 2 µg/mL
[9]; [29]
  Peptide MIC during treatment with antibiotic: 1 µg/mL
[9]; vancomycin […] (Conc./MIC 1/4)
  Peptide MIC during treatment with antibiotic: 4 µg/mL
[9]; vancomycin […] (Conc./MIC 1/8)
  Peptide MIC during treatment with antibiotic: 4 µg/mL
[10]
  Minimal inhibitory concentration MIC: 64 µg/mL (≈ 26.5 µM)
[11]
  Minimal inhibitory concentration MIC: 32 µg/mL (≈ 13.2 µM)
[12]
  Minimal inhibitory concentration MIC: 32 µg/mL (≈ 13.2 µM)
  Peptide MIC, peptide alone: 32 µg/mL
[13]
  Minimal inhibitory concentration MIC: >128 µg/mL
